Legend:
[1] = molecular target: Sodium-dependent noradrenaline transporter (Homo sapiens, UniProt P23975); test: Displacement of [3H]nisoxetine from human NET expressed in HEK293 cells; assay type: cell-based
[2] = molecular target: Sodium-dependent serotonin transporter (Homo sapiens, UniProt P31645); test: Displacement of [3H]citalopram from human SERT expressed in HEK293 cells; assay type: cell-based
[3] = molecular target: Sodium-dependent dopamine transporter (Homo sapiens, UniProt Q01959); test: Displacement of [125I]RTI55 from human DAT expressed in HEK293 cells; assay type: cell-based
[4] = molecular target: Serotonin and norepinephrine transporters (SERT/NET) (Homo sapiens, UniProt P31645+P23975); test: Selectivity of human NET over human SERT expressed in HEK293 cells; assay type: cell-based
[5] = molecular target: Monoamine transporters; Norepinephrine & dopamine (Homo sapiens, UniProt Q01959+P23975); test: Selectivity of human NET over human DAT expressed in HEK293 cells; assay type: cell-based
[6] = Drug level in Rhesus monkey plasma assessed as unmetabolized fractions at 3 mins; assay type: ADME, cell-free, Macaca mulatta; conditions: read-out: Activity
[7] = Drug level in Rhesus monkey plasma assessed as unmetabolized fractions at 10 mins; assay type: ADME, cell-free, Macaca mulatta; conditions: read-out: Activity
[8] = Drug level in Rhesus monkey plasma assessed as unmetabolized fractions at 30 mins; assay type: ADME, cell-free, Macaca mulatta; conditions: read-out: Activity

Sequence of Sodium-dependent noradrenaline transporter (P23975 whole entry): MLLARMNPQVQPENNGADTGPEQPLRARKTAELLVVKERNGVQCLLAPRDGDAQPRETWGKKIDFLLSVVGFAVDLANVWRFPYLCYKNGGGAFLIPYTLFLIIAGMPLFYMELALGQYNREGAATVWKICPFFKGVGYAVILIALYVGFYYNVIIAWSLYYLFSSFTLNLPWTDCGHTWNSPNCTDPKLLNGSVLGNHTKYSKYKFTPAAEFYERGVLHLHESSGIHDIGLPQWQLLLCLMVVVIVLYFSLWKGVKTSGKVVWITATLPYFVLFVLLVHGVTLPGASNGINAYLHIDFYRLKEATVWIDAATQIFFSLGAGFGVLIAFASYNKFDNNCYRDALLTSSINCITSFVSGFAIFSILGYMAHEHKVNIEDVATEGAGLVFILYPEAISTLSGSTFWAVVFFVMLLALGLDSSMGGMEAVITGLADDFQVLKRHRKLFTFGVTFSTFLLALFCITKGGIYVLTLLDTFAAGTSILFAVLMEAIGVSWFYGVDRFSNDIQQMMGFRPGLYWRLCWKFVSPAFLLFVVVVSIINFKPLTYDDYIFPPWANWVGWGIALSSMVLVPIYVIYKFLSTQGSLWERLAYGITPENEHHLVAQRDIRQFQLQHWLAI
Sequence of Sodium-dependent serotonin transporter (P31645 whole entry): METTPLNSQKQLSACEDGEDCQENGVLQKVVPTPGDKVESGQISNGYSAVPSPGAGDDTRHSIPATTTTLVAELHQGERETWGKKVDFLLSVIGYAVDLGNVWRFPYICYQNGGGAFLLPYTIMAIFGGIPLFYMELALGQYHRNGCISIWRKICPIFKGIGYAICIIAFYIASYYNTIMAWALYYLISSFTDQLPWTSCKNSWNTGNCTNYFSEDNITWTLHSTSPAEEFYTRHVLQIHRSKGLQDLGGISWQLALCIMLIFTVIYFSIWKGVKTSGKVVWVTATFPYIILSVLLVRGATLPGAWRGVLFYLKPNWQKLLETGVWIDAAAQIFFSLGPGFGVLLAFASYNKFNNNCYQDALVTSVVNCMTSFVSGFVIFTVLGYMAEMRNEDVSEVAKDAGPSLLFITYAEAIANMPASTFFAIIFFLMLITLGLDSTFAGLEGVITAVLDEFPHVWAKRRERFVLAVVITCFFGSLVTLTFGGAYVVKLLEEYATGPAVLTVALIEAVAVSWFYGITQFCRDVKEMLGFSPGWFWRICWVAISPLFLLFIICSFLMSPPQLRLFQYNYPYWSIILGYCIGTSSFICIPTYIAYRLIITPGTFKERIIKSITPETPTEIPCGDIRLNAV
Sequence of Sodium-dependent dopamine transporter (Q01959 whole entry): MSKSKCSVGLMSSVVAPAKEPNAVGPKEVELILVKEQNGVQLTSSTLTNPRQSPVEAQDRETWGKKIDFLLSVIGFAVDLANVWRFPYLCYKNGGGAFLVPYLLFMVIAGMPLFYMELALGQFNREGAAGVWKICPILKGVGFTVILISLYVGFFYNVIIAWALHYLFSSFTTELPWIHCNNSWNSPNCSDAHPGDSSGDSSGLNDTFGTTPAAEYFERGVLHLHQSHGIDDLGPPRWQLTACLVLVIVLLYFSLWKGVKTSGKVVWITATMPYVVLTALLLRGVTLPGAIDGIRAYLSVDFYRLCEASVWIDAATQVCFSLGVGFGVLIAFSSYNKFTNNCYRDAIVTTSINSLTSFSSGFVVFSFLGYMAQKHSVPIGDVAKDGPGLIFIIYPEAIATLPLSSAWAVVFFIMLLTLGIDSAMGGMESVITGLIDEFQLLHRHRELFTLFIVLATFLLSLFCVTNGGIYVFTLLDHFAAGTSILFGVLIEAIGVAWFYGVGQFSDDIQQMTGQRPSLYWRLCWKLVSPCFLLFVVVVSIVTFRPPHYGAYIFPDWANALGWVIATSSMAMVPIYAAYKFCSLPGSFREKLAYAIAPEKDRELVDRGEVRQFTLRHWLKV

COC(=O)[C@@H]1[C@H]2CC[C@H](C[C@H]1c1ccc(C)cc1)N2
Ki [1]: 4.88 nM | Ki [2]: 136 nM | Ki [3]: 11.5 nM | NET over SERT selectivity ratio [4]: 28 nM | NET over DAT selectivity ratio (no unit) [5]: 2.3 nM

COC(=O)[C@@H]1[C@H]2CC[C@H](C[C@H]1c1ccc(C)c(F)c1)N2
Ki [1]: 1.78 nM | Ki [2]: 42.8 nM | Ki [3]: 6.42 nM | NET over SERT selectivity ratio [4]: 24 nM | NET over DAT selectivity ratio (no unit) [5]: 3.6 nM

C#Cc1ccc([C@@H]2C[C@H]3CC[C@@H](N3)[C@H]2C(=O)OC)cc1
Ki [1]: 1.86 nM | Ki [2]: 3.45 nM | Ki [3]: 2.26 nM | NET over SERT selectivity ratio [4]: 1.8 nM | NET over DAT selectivity ratio (no unit) [5]: 1.2 nM

C=Cc1ccc([C@@H]2C[C@H]3CC[C@@H](N3)[C@H]2C(=O)OC)cc1
Ki [1]: 4.67 nM | Ki [2]: 9.04 nM | Ki [3]: 10.1 nM | NET over SERT selectivity ratio [4]: 1.9 nM | NET over DAT selectivity ratio (no unit) [5]: 2.2 nM

COC(=O)[C@@H]1[C@H]2CC[C@H](C[C@H]1c1ccc(I)cc1)N2
Ki [1]: 1.98 nM | Ki [2]: 4.16 nM | Ki [3]: 2.25 nM | NET over SERT selectivity ratio [4]: 2.1 nM | NET over DAT selectivity ratio (no unit) [5]: 1.1 nM

Cc1ccc([C@@H]2C[C@H]3CC[C@@H](N3)[C@H]2C(=O)O[11CH3])cc1F
remaining at 0.05 h [6]: 25% | remaining at 10 min [7]: 7.5% | remaining at 0.5 h [8]: 1.6%
